Assay results from publication PMC9137726, “Thioredoxin Reductase-Type Ferredoxin: NADP^+ Oxidoreductase of Rhodopseudomonas palustris: Potentiometric Characteristics and Reactions with Nonphysiological Oxidants” (Antioxidants, 2022).

Molecular target: T1, RpFNR (R. palustris TrxR-type FNR) (Rhodopseudomonas palustris, UniProt Q6N2U4)
T1 construct: gene RPA3954; domains span residues 2-344
Test: steady-state spectrophotometric NADPH:juglone reductase inhibition
Format: biochemical
Details: read-out: Kis

T1 sequence (Q6N2U4 whole entry, the tested form may be a part): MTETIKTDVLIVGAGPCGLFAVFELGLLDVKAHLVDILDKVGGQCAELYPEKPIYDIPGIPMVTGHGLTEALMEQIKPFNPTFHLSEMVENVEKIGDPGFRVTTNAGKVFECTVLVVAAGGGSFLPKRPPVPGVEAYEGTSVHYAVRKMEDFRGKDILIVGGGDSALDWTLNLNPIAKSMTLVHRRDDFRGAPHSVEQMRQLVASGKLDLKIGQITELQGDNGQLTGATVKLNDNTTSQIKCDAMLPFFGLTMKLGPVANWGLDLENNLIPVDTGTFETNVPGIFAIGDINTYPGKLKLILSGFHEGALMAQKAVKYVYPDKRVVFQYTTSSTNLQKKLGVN

Ki: 150 ± 10 µM
SMILES: NC(=O)c1ccc[n+]([C@@H]2O[C@H](COP(=O)(O)OP(=O)(O)OC[C@H]3O[C@@H](n4cnc5c(N)ncnc54)[C@H](OP(=O)(O)O)[C@@H]3O)[C@@H](O)[C@H]2O)c1 [NADP^+]
